Experimental data as given in PubChem BioAssay (NCI).
Several values for one entry are separate records, joined by “and”; a condition that tells them apart may be missing. Identical values can stand only once.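 Five compound concentrations were applied to cells in 96-well plates for 48 hours; endpoints were derived by simple linear interpolation of the resulting dose-response curve. At the GI50, growth is halved. TGI is the concentration that stops growth completely.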

How the values were obtained:
Assay in all cases: NCI-60 cell line screen, 48 h
MALME-3M melanoma = test system: MALME-3M melanoma
CAKI-1 renal = test system: CAKI-1 renal
A498 renal = test system: A498 renal
MDA-MB-231 breast = test system: MDA-MB-231 breast
HL-60(TB) leukemia = test system: HL-60(TB) leukemia
SN12C renal = test system: SN12C renal
SF-268 CNS = test system: SF-268 CNS
OVCAR-4 ovarian = test system: OVCAR-4 ovarian
CCRF-CEM leukemia = test system: CCRF-CEM leukemia
SR leukemia = test system: SR leukemia

Compound | GI50 (MALME-3M melanoma) | TGI (MALME-3M melanoma) | GI50 (CAKI-1 renal) | TGI (CAKI-1 renal) | GI50 (A498 renal) | TGI (A498 renal) | GI50 (MDA-MB-231 breast) | TGI (MDA-MB-231 breast) | GI50 (HL-60(TB) leukemia) | TGI (HL-60(TB) leukemia) | GI50 (SN12C renal) | TGI (SN12C renal) | GI50 (SF-268 CNS) | TGI (SF-268 CNS) | GI50 (OVCAR-4 ovarian) | TGI (OVCAR-4 ovarian) | GI50 (CCRF-CEM leukemia) | TGI (CCRF-CEM leukemia) | GI50 (SR leukemia) | TGI (SR leukemia)
CCCCC[C@H](O)/C=C/[C@@H]1[C@@H](C/C=C\CCCC(=O)O)[C@@H](O)C[C@H]1O | > 100 µM | > 100 µM | > 100 µM | > 100 µM | > 100 µM | > 100 µM | > 100 µM | > 100 µM | > 100 µM | > 100 µM | > 100 µM | > 100 µM | > 100 µM | > 100 µM | > 100 µM | > 100 µM | > 100 µM | > 100 µM | > 100 µM | > 100 µM
COc1cc2c(cc1O)CC[C@@H]1[C@@H]2CC[C@]2(C)[C@@H](NCCN(C)C)CC[C@@H]12 | 0.19 µM | 0.669 µM | 0.464 µM | 0.945 µM | 0.164 µM | 0.636 µM | 0.0979 µM | 0.391 µM | 0.173 µM | 0.675 µM | 0.38 µM | 1.48 µM | 0.267 µM | 0.753 µM | 0.339 µM | 0.943 µM | 0.156 µM | 0.612 µM | 0.0989 µM | 0.437 µM
Cc1c2cc[n+](C)cc2c(C)c2c1sc1ccccc12 |  | 1.92 µM |  | 60.6 µM |  | 13.6 µM |  | 11.2 µM |  | 28.4 µM |  | 0.747 µM |  | 1.14 µM |  | 11.4 µM |  | 13.8 µM |  | 9.54 µM
CCNC(=O)[C@@H]1CCCN2C(=O)CC[C@H](NC(=O)[C@H](Cc3ccc(OP(=O)(O)O)cc3)NC(C)=O)C(=O)N12 | > 25 µM | > 25 µM | > 25 µM | > 25 µM | > 25 µM | > 25 µM | > 25 µM | > 25 µM | > 25 µM | > 25 µM | > 25 µM | > 25 µM | > 25 µM | > 25 µM | > 25 µM | > 25 µM | > 25 µM | > 25 µM | > 25 µM | > 25 µM
COc1cc(NS(C)(=O)=O)ccc1Nc1c2ccc([N+](=O)[O-])cc2nc2c(C)cccc12 | 0.717 µM | 7.07 µM | 1.13 µM | 6.94 µM | 0.226 µM | 2.92 µM | 3.82 µM | 16.4 µM | 0.302 µM | 3.57 µM | 0.175 µM | 9.26 µM | 0.256 µM | 13.1 µM | 3.32 µM | 19.1 µM | 0.158 µM | 3.4 µM | < 0.012 µM | 5.82 µM
F | 1920 µM | 5060 µM | 3220 µM | > 6870 µM | 1620 µM | 4390 µM | 2660 µM | > 6870 µM | 2360 µM | > 6870 µM | 3270 µM | > 6870 µM | 3540 µM | > 6870 µM | > 6870 µM | > 6870 µM | 4540 µM | > 6870 µM | > 6870 µM | > 6870 µM
C/C(=N\NC(=O)c1sc(=S)n(C)c1N)c1cc2ccccc2o1 | 28.1 µM | 56.9 µM | 37.6 µM | > 100 µM | 4.58 µM | 18.9 µM | 4.86 µM | 16.5 µM | 26 µM | > 100 µM | 17.6 µM | 55.6 µM | 14.4 µM | 37.4 µM | 17.9 µM | 64.2 µM | 10.6 µM | 31 µM | 8.04 µM | 22 µM
CN(Cc1cnc2nc(N)nc(N)c2n1)c1ccc(C(=O)NC(CCC(=O)O)C(=O)O)cc1C(F)(F)F (centres undefined) |  | > 100 µM |  | > 100 µM |  | > 100 µM |  | > 100 µM |  | > 100 µM |  |  |  | > 100 µM |  | > 100 µM |  | 0.486 µM |  | 1.24 µM
N#Cc1c(-c2ccccc2)nc(SCC2CO2)nc1N1CCOCC1 (centres undefined) | 2.32 µM | > 68.3 µM | 1.07 µM | 17 µM | 1.26 µM | 5.42 µM | 15.8 µM | > 100 µM | 8.88 µM | > 100 µM | 15.3 µM | > 100 µM | 13.1 µM | > 100 µM | 52.7 µM | > 100 µM | > 31 µM | > 100 µM | 12.3 µM | > 53.3 µM
O=C[C@@H](CO)O[C@H](C=O)c1c[nH]c(=O)[nH]c1=O |  | 253 µM |  | 250 µM |  | 744 µM |  | 389 µM |  | 376 µM |  | 551 µM |  | 427 µM |  | 375 µM |  | 973 µM |  | 614 µM
CCc1nc(N)nc(N)c1-c1ccc(NCCN)c([N+](=O)[O-])c1 |  | 40.7 µM |  | > 100 µM |  | > 86.1 µM |  | > 100 µM |  | > 100 µM |  | > 100 µM |  | > 76.3 µM |  | > 100 µM |  | > 72.4 µM |  | > 55.8 µM
CC12CCC3C(CCC4Cc5[nH]c6ccccc6c5CC43C)C1CCC2O (centres undefined) | 2.92 µM | > 100 µM | 0.791 µM | > 100 µM | 0.696 µM | 6.44 µM | 2.09 µM | 7.16 µM | 0.381 µM | 2.33 µM | 4.09 µM | > 100 µM | 2.55 µM | > 100 µM | 1.35 µM | > 100 µM | 1 µM | 6.44 µM | 0.342 µM | 1.32 µM
O=[N+]([O-])c1ccc(S(=O)(=O)Cc2ccccc2)c([N+](=O)[O-])c1 |  | 6.2 µM |  | 3.2 µM |  | 31.1 µM |  | 5.99 µM |  | 4.03 µM |  |  |  | 14.5 µM |  | 5.77 µM |  | 0.498 µM |  | 6.03 µM
Cn1cc(-c2ccc3c(Nc4cccc(NC(=O)Nc5cccc(F)c5)c4)ncnc3c2)cn1 | 1.29 µM | 3.79 µM | 0.559 µM | 14.9 µM | 0.0532 µM | 2.99 µM | 2.88 µM | 12.3 µM | 5.9 µM | 28 µM | 1.6 µM | 4.29 µM | 1.64 µM | 11.2 µM | 1.85 µM | 4.41 µM | 0.0474 µM | 13.7 µM | 1.24 µM | > 100 µM
CC(=O)NCCc1c2c(c3nccc4c3c1Nc1ccccc1-4)OCS2 | 7.28 µM | 24.7 µM | 0.249 µM | 8.59 µM | 0.698 µM | 19.1 µM | 0.594 µM | 6.61 µM | 2.97 µM | 14.3 µM | 0.741 µM | 4.79 µM | 1.56 µM | 11.4 µM | 1.92 µM | 6.02 µM | 1.28 µM |  | 0.0354 µM | > 100 µM
Cc1ccc2c(c1)C(C)Cc1c(ncnc1-n1cnc3ccccc31)N2C (centres undefined) |  |  | 0.337 µM | 17.8 µM | 0.22 µM | 17.1 µM | 0.809 µM | 18.2 µM | 0.255 µM | 0.705 µM | 0.915 µM | 21.9 µM | 1.19 µM | 17.7 µM | 2.51 µM | 22.5 µM | 0.267 µM | 12.6 µM | 0.0649 µM | 11 µM
O=C(O)C/C(=C\c1ccco1)C(=O)O |  | > 100 µM |  | > 100 µM |  | > 100 µM |  | > 100 µM |  | > 100 µM |  | > 100 µM |  |  |  | > 100 µM |  |  |  | > 100 µM
CC(C)[C@]12O[C@H]1[C@@H]1O[C@]13[C@]1(O[C@H]1C[C@H]1C4=C(CC[C@@]13C)C(=O)OC4)[C@@H]2O | 0.018 µM | 0.0328 µM and 0.0467 µM | 0.0111 µM and < 0.01 µM | > 100 µM | 0.0274 µM | 0.0454 µM and 0.0828 µM | 0.0168 µM | 0.116 µM | < 0.0111 µM | 0.0495 µM |  |  |  | 0.241 µM and 0.218 µM | 0.0174 µM |  | 0.0255 µM | 0.297 µM | 0.00713 µM | 0.0488 µM
COc1ccc(C2CC(c3cc(OC)c(OC)c(OC)c3)=NO2)cc1OCCCCOc1cc2c(cc1OC)C(=O)N1CCC[C@H]1C=N2 (some centres undefined) |  |  | 3.09 µM | > 100 µM | 1.72 µM | 3.22 µM | 1.15 µM | 2.61 µM | 1.9 µM | 4.54 µM | 1.58 µM | 3.31 µM | 1.89 µM | 4.16 µM | 2.07 µM | 5.04 µM | 1.41 µM | 4.27 µM | 1.12 µM | 3.26 µM
COC(=O)CCC(=O)C(=O)OC | 37900 µM |  |  |  | 18500 µM | 39700 µM | 39500 µM |  | 23600 µM | 61600 µM | 21500 µM | 62100 µM | 26400 µM |  | 65000 µM |  | 17800 µM | 85500 µM | 4360 µM | 41100 µM
O=C1c2ccccc2-c2c1c1ccccc1c(=O)n2CCCCNCCCn1c2c(c3ccccc3c1=O)C(=O)c1ccccc1-2 | 1.41 µM | 6.03 µM | 0.71 µM | 4.21 µM | 1.49 µM | 5.64 µM | 0.319 µM | 1.34 µM | 8.19 µM | 23.3 µM | 0.158 µM | 1.13 µM | 0.358 µM | 6.93 µM | 0.683 µM | 15.5 µM |  |  | 0.005 µM | 0.0273 µM
